Results on eight compounds are retold here after patent US12139492B2 (Endotarget Inc., priority 2021, dated 2024).

Like-named read-outs stand apart in the source and are kept apart here.

Experiment [1] has as its system Mino cells. Nature of the experiment: Antiproliferative effect, MTS cell viability assay, Mino cells. It is filed as cell-based. The settings on record: Mino mantle cell lymphoma cells, read-out: IC50 (anti-proliferation) Mino cells. In a few lines: (§1)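 Readout was MTS-derived formazan absorbance (490 nm) reflecting metabolically active cells. Treatment lasted 72 h over a 0–10 μM range (0.001, 0.01, 0.1, 1, 10 μM) in JeKo-1 and Mino B-cell malignancy cells.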

The subject of experiment [2] is JeKo-1 cells. Nature of the experiment: Antiproliferative effect, MTS cell viability assay, JeKo-1 cells. It is filed as cell-based. Particulars: JeKo-1 mantle cell lymphoma cells, read-out: IC50 (anti-proliferation) JeKO-1 cells. The essentials: as §1
Experiment [3] deals with T1, BTK (Homo sapiens, UniProt Q06187). The experiment can be described thus: BTK degradation, DC50 and Dmax of Table 1 (cell line not given). Particulars: for DC50: concentration giving 50% reduction of BTK expression level. It is filed as cell-based. Further details: endogenous in cells.
For experiment [4], the target named is T1, BTK. Nature of the experiment: Degradation of BTK protein in Mino cells (Western blot; DC50, Dmax). Particulars: Mino mantle cell lymphoma cells, various concentrations, 24 hours.
Description: (§2) Namalwa, JeKo-1, or Mino cells were plated in 24-well plates at a density of 10^5 cells/well. Media containing various drug concentrations were added on the day following plating (day 0) and allowed to incubate for 24 hours for Western blot. Media with the tested compound was changed every other day. […] Media were removed and dishes were washed with 1×DPBS. Lysates were made by adding 150 μL of complete lysis solution and scraping cells into a 1.5 mL microcentrifuge tube. Lysates were placed on a rotisserie at 4° C. for 30 min and then spun at 4° C. at 12000 rcf for 10 min. Supernatants were assayed for protein content, snap-frozen, and stored a −80° C. if not run immediately. Then 50 μg of protein was subjected to Western blot protocol. […] They were then imaged on a LICOR infrared scanner.
Experiment [5] deals with T1, BTK. The experiment can be described thus: Degradation of BTK protein in JeKo-1 cells (Western blot; DC50, Dmax). The settings on record: JeKo-1 mantle cell lymphoma cells, various concentrations, 24 hours.
Description: as §2
For experiment [6], the target named is T1, BTK. The experiment can be described thus: Degradation of BTK protein in Namalwa cells (Western blot; DC50, Dmax). Particulars: for degradation of BTK protein: various concentrations, 24 hours; for DC50: cell line not given.
The mark [7] stands for this setting: Namalwa B lymphocyte cells, Western blot.
[8] abbreviates: read-out: DC50 (BTK degradation), concentration giving 50% reduction of BTK expression level.
[9] abbreviates: read-out: Dmax (BTK degradation).

T1 sequence (Q06187 whole entry): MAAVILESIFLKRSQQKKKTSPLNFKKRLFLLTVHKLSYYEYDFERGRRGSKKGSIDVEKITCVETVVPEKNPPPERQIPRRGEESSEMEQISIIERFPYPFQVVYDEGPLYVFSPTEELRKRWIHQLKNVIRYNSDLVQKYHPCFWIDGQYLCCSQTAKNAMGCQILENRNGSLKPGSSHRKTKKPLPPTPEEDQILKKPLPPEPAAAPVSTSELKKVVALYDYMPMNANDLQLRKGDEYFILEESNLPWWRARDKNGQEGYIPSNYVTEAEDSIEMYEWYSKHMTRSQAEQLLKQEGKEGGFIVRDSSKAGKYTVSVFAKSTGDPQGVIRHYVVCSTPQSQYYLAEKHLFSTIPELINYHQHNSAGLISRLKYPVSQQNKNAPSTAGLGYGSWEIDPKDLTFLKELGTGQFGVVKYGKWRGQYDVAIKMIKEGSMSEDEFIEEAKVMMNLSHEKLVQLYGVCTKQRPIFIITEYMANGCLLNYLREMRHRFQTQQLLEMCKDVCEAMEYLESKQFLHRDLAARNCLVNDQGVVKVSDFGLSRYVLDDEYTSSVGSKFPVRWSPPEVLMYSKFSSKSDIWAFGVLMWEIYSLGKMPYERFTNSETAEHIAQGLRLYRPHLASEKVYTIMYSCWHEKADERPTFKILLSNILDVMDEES

Take `Nc1ncnc2c1c(-c1ccc(Oc3ccccc3)cc1)nn2[C@@H]1CCCN(CC2CCN(C(=O)N3CCC(N4CCN(c5ccc6c(c5)C(=O)N(C5CCC(=O)NC5=O)C6=O)CC4)CC3)CC2)C1` (stereo partly drawn) [Compound 27, 5-(4-(1-(4-(((R)-3-(4-amino-3-(4-phenoxyphenyl)-1H-pyrazolo(3,4-d)pyrimidin-1-yl)piperidin-1-yl)methyl)piperidine-1-carbonyl)piperidin-4-yl)piperazin-1-yl)-2-(2,6-dioxopiperidin-3-yl)isoindoline-1,3-dione]: the IC50 in experiment [1] (Homo sapiens, MINO) is 1000 to 10000 nM; in experiment [2] (Homo sapiens), less than 1000 nM. This compound also showed a Dmax in experiment [3] of more than 90%. The compound further returned a DC50 in experiment [3] of less than 10 nM. In addition, the “degradation of BTK protein” value in experiment [4], in experiment [5] and in experiment [6] (setting [7]) was “dose-dependent degradation” in each case. Besides, the “degradation of BTK protein at 10^−6 M” value in experiment [6] (Namalwa B lymphocyte cells, 10^−6 M, Western blot) is given as “degradation”.
As to `Nc1ncnc2c1c(-c1ccc(Oc3ccccc3)cc1)nn2[C@@H]1CCCN(CC2CCN(C(=O)N3CCC(N4CCN(c5ccc6c(c5)CN(C5CCC(=O)NC5=O)C6=O)CC4)CC3)CC2)C1` (stereo partly drawn) [Compound 28, 3-(5-(4-(1-(4-(((R)-3-(4-amino-3-(4-phenoxyphenyl)-1H-pyrazolo(3,4-d)pyrimidin-1-yl)piperidin-1-yl)methyl)piperidine-1-carbonyl)piperidin-4-yl)piperazin-1-yl)-1-oxoisoindolin-2-yl)piperidine-2,6-dione], the values for the IC50 in experiment [1] (Homo sapiens) and in experiment [2] (Homo sapiens) were less than 1000 nM and 1000 to 10000 nM, respectively. Also, the Dmax in experiment [3] is more than 90%. Also, in experiment [3], the DC50 lay within 10 to 50 nM. Besides, the “degradation of BTK protein” value in experiment [4], in experiment [5] and in experiment [6] (setting [7]) was “dose-dependent degradation” each time.
Regarding `Nc1ncnc2c1c(-c1ccc(Oc3ccccc3)cc1)nn2[C@@H]1CCCN(C(=O)N2CCC(N3CCN(c4ccc5c(c4)CN(C4CCC(=O)NC4=O)C5=O)CC3)CC2)C1` (stereo partly drawn) [Compound 52, 3-(5-(4-(1-((R)-3-(4-amino-3-(4-phenoxyphenyl)-1H-pyrazolo(3,4-d)pyrimidin-1-yl)piperidine-1-carbonyl)piperidin-4-yl)piperazin-1-yl)-1-oxoisoindolin-2-yl)piperidine-2,6-dione], the IC50 is less than 1000 nM in experiment [1] (Homo sapiens, MINO) and less than 1000 nM in experiment [2] (Homo sapiens). Moreover, the Dmax in experiment [3] is more than 90%. In experiment [3], this compound returned a DC50 of less than 10 nM. The “degradation of BTK protein” value in experiment [4], in experiment [5] and in experiment [6] (setting [7]) was “dose-dependent degradation” in each case.
Consider `Nc1ncnc2c1c(-c1ccc(Oc3ccccc3)cc1)nn2[C@@H]1CCCN(C2CCN(C(=O)N3CCC(N4CCN(c5ccc6c(c5)CN(C5CCC(=O)NC5=O)C6=O)CC4)CC3)CC2)C1` (stereo partly drawn) [Compound 162, 3-(5-(4-(1-((R)-3-(4-amino-3-(4-phenoxyphenyl)-1H-pyrazolo(3,4-d)pyrimidin-1-yl)-(1,4′-bipiperidine)-1′-carbonyl)piperidin-4-yl)piperazin-1-yl)-1-oxoisoindolin-2-yl)piperidine-2,6-dione], for which the IC50 in experiment [1] (Homo sapiens) and in experiment [2] (Homo sapiens) was less than 1000 nM in each case. Moreover, in experiment [3], the maximal degradation (Dmax) is more than 90%. This compound had a DC50 in experiment [3] of less than 10 nM. In addition, the “degradation of BTK protein” value in experiment [4], in experiment [5] and in experiment [6] (setting [7]) was “dose-dependent degradation” each time.
Regarding `Nc1ncnc2c1c(-c1ccc(Oc3ccccc3)cc1)nn2C1CCN(C2CCN(CC3CCN(c4ccc5c(c4)C(=O)N(C4CCC(=O)NC4=O)C5=O)CC3)CC2)CC1` (stereo not drawn) [Compound 213, 5-(4-((4-(4-amino-3-(4-phenoxyphenyl)-1H-pyrazolo(3,4-d)pyrimidin-1-yl)-(1,4′-bipiperidin)-1′-yl)methyl)piperidin-1-yl)-2-(2,6-dioxopiperidin-3-yl)isoindoline-1,3-dione], the IC50 in experiment [1] (Homo sapiens, MINO) is less than 1000 nM; in experiment [2] (Homo sapiens) it was less than 1000 nM. The “degradation of BTK protein” value in experiment [4], in experiment [5] and in experiment [6] (setting [7]) was “dose-dependent degradation” throughout. The compound further gave a Dmax in experiment [6] of more than 90%. Further, in experiment [6] (BTK degradation), the DC50 was less than 10 nM.
On to `Nc1ncnc2c1c(-c1ccc(Oc3ccccc3)cc1)nn2C1CCN(CCOCCOCCN2CCC(c3ccc4c(c3)CN(C3CCC(=O)NC3=O)C4=O)CC2)CC1` (stereo not drawn) [Compound 419, 3-(5-(1-(2-(2-(2-(4-(4-amino-3-(4-phenoxyphenyl)-1H-pyrazolo[3,4-d]pyrimidin-1-yl)piperidin-1-yl)ethoxy)ethoxy)ethyl)piperidin-4-yl)-1-oxoisoindolin-2-yl)piperidine-2,6-dione], for which the IC50 in experiment [1] and in experiment [2] was 1000 to 10000 nM each time. For the same compound, the “degradation of BTK protein” value in experiment [4], in experiment [5] and in experiment [6] (setting [7]) was “dose-dependent degradation” throughout. Moreover, the DC50 in experiment [6] (setting [8]) was less than 10 nM. For the same compound, in experiment [6] (setting [9]), the greatest degradation seen (Dmax) is more than 90%.
With `Nc1ncnc2c1c(-c1ccc(Oc3ccccc3)cc1)nn2C1CCN(CC2CCN(/C=C/C(=O)CN3CCN(c4ccc5c(c4)CN(C4CCC(=O)NC4=O)C5=O)CC3)CC2)CC1` (stereo not drawn) [Compound 420, (E)-3-(5-(4-(4-(4-((4-(4-amino-3-(4-phenoxyphenyl)-1H-pyrazolo[3,4-d]pyrimidin-1-yl)piperidin-1-yl)methyl)piperidin-1-yl)-2-oxobut-3-en-1-yl)piperazin-1-yl)-1-oxoisoindolin-2-yl)piperidine-2,6-dione], the IC50 in experiment [1] (Homo sapiens, MINO) lay in the range of 1000 to 10000 nM; in experiment [2] (Homo sapiens), 1000 to 10000 nM. Further, the “degradation of BTK protein” value in experiment [4], in experiment [5] and in experiment [6] (setting [7]) was “dose-dependent degradation” throughout. For the same compound, the DC50 in experiment [6] (setting [8]) is less than 10 nM. The Dmax in experiment [6] (setting [9]) is more than 90%.
Turning to `Nc1ncnc2c1c(-c1ccc(Oc3ccccc3)cc1)nn2C1CCN(CC2CN(CC3CCN(c4ccc5c(c4)C(=O)N(C4CCC(=O)NC4=O)C5=O)CC3)C2)CC1` (stereo not drawn) [Compound 439, 5-(4-((3-((4-(4-amino-3-(4-phenoxyphenyl)-1H-pyrazolo(3,4-d)pyrimidin-1-yl)piperidin-1-yl)methyl)azetidin-1-yl)methyl)piperidin-1-yl)-2-(2,6-dioxopiperidin-3-yl)isoindoline-1,3-dione], the IC50 was less than 1000 nM in experiment [1] (Homo sapiens, MINO) and 1000 to 10000 nM in experiment [2] (Homo sapiens). For the same compound, the “degradation of BTK protein” value in experiment [4], in experiment [5] and in experiment [6] (setting [7]) was “dose-dependent degradation” throughout. In addition, the DC50 in experiment [6] (setting [8]) was less than 10 nM. The greatest degradation seen (Dmax) in experiment [6] (setting [9]) was more than 90%.
